# Target: T1, Acyl-CoA: Cholesterol Acyltransferase (ACAT) (Rattus norvegicus, UniProt Q7TQM4)
# T1 construct: centrifuged at 105,000×g for 1 hour to pellet the microsomes; from tissue; host or cells: liver microsomes of male Sprague Dawley rats
# T1 sequence (Q7TQM4 1-524): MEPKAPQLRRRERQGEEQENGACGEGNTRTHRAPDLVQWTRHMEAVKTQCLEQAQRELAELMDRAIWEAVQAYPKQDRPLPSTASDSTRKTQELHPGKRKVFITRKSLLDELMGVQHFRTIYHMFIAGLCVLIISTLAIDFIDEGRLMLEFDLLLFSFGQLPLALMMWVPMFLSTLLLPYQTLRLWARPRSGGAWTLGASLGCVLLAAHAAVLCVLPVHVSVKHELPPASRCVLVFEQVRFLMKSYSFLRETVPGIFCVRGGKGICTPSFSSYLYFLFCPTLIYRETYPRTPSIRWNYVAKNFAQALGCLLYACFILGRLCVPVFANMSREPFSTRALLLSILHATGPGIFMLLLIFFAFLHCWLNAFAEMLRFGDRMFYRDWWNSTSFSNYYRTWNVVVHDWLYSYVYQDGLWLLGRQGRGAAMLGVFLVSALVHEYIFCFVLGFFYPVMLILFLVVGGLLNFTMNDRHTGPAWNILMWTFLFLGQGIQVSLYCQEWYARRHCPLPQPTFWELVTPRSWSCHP
# Experiment: Inhibition of Acyl-CoA: Cholesterol Acyltransferase (ACAT) in Hepatic Microsomes (In Vitro Assay)
# Assay type: biochemical, rat (male Sprague Dawley)
# Conditions: 75 μM 14C-oleoyl-CoA, pH 7.4, 37° C., 10 min, read-out: ACAT Inhibitory Activity (In Vitro) (IC50)
# Procedure: A. Assay of the Inhibition of Acyl-CoA: Cholesterol Acyltransferase (ACAT) in Hepatic Microsomes (In Vitro Assay)
# The ability of the compounds to inhibit ACAT, the enzyme responsible for the intracellular synthesis of cholesteryl esters, was tested as follows. Male Sprague Dawley rats weighing 150-300 g, were fed rat chow ad libitum. The animals were fasted for twenty-four hours prior to being euthanized by CO2. The livers were perfused in situ with 50 ml of cold 0.25 sucrose, excised, and homogenized in three volumes of 0.1M phosphate buffer, pH 7.4, that contained 0.5 mM EDTA (ethylenediamine-tetraacetic acid), 1.0 mM glutathione, 0.25M sucrose and […] leupeptin. Microsomes were obtained by differential centrifugation; the supernatant from an initial spin at 15,000×g for 15 minutes was centrifuged at 105,000×g for 1 hour to pellet the microsomes. The microsomes were suspended in homogenization buffer, reisolated by centrifugation, and stored at -70° C. Microsomes were used within one month of preparation.
# The control assay in a final volume of 200 μl consisted of 200 μg of microsomal protein, 75 μM ^14 C-oleoyl-CoA (10,000 dpm/nmol) in 0.1M phosphate, pH 7.4, that contained 1 mM glutathione. Compounds were added in 5 μl of DMSO (dimethyl sulfoxide) and additional controls were run with DMSO only. All components, except the oleoyl-CoA, were preincubated for 15 min. at 37° C. prior to the initiation of the reaction by the addition of oleoyl-CoA. The assay was terminated after 10 min by the addition of 4 ml of chloroform:methanol (2:1, v/v). 20,000 dpm of ^3 H-cholesteryl oleate and 10 μg of unlabeled cholesteryl oleate and oleic acid were added as an internal standard and carriers, respectively. After allowing 10 min. for lipid extraction, the samples were centrifuged at 1,000×g for 10 min to separate the solvent layers. The chloroform layer containing the neutral lipids was spotted onto a Baker SI250-Pa silica gel TLC plate and the plate developed using a hexane:diethyl ether:acetic acid (170:30:1) v/v/v) mobile phase. The lipids were visualized by their interaction with iodine vapor and the cholesteryl ester spot was scraped into a scintillation vial and counted. The specific activity of ACAT in the control incubation averaged 260 pmol/min/mg microsomal protein. The data obtained are expressed as the concentration at which ACAT activity is inhibited by 50% (IC50).
row,Compound,IC50 [nM]
1,"CCCCCCSC(C(=O)Nc1c(SC)cc(C)nc1SC)c1ccccc1 (single isomer, unassigned) [Example 41, N-[2,4-bis(methylthio)-6-methyl-3-pyridyl]-L-(+)-α-hexylthio-phenylacetamide]",< 1000
2,"CCCCCCSC(C(=O)Nc1c(C(C)C)cccc1C(C)C)c1ccccc1 (single isomer, unassigned) [Example 42, N-(2,6-diisopropyl-phenyl)-D-(-)-α-hexylthio-phenylacetamide]",< 1000
3,"CSc1cc(C)nc(SC)c1NC(=O)C(SCc1ccccc1)c1ccccc1 (single isomer, unassigned) [Example 46, N-[2,4-bis(methylthio)-6-methyl-3-pyridyl]-D-(-)-α-benzylthio-phenylacetamide]",< 1000
4,"CSc1cc(C)nc(SC)c1NC(=O)C(SCc1ccccc1)c1ccccc1 (single isomer, unassigned) [Example 47, N-[2,4-bis(methylthio)-6-methyl-3-pyridyl]-L-(+)-α-benzylthio-phenylacetamide]",< 1000
5,"CC(C)c1cccc(C(C)C)c1NC(=O)C(SCc1ccccc1)c1ccccc1 (single isomer, unassigned) [Example 48, N-(2,6-diisopropyl-phenyl)-D-(-)-α-benzylthio-phenylacetamide]",< 1000
6,"CCSC(C(=O)Nc1c(SC)cc(C)nc1SC)c1ccccc1 (single isomer, unassigned) [Example 49, N-[2,4-bis(methylthio)-6-methyl-3-pyridyl]-D-(-)-α-ethylthio-phenylacetamide]",< 1000
7,"CCSC(C(=O)Nc1c(SC)cc(C)nc1SC)c1ccccc1 (single isomer, unassigned) [Example 50, N-[2,4-bis(methylthio)-6-methyl-3-pyridyl]-L-(+)-α-ethylthio-phenylacetamide]",< 1000
8,"CSc1cc(C)nc(SC)c1NC(=O)C(Sc1ccccc1)c1ccccc1 (single isomer, unassigned) [Example 63, N-[2,4-his (methylthio)-6-methyl-3-pyridyl]-L-(+)-α-phenylthio-phenylacetamide]",< 1000
9,"CC(C)c1cccc(C(C)C)c1NC(=O)C(Sc1ccccc1)c1ccccc1 (single isomer, unassigned) [Example 64]",1000 to 10000
10,"CCCCCCSC(C(=O)Nc1c(SC)cc(C)nc1SC)c1ccc(Cl)cc1 (stereo not drawn) [Example 85, N-[2,4-bis(methylthio)-6-methyl-3-pyridyl]-α-hexylthio-4-chloro-phenylacetamide]",< 1000
11,"CSc1cc(C)nc(SC)c1NC(=O)C(SCc1ccccc1)c1ccc(Cl)cc1 (stereo not drawn) [Example 89, N-[2,4-bis(methylthio)-6-methyl-3-pyridyl]-α-benzylthio-4-chloro-phenylacetamide]",< 1000
12,"COc1ccc(CSC(C(=O)Nc2c(SC)cc(C)nc2SC)c2ccc(Cl)cc2)cc1 (stereo not drawn) [Example 90, N-[2,4-bis(methylthio)-6-methyl-3-pyridyl]-α-(4-methoxy-benzylthio)-4-chloro-phenylacetamide]",< 1000
13,"CSc1cc(C)nc(SC)c1NC(=O)C(SCc1ccc(F)cc1)c1ccc(Cl)cc1 (stereo not drawn) [Example 91, N-[2,4-bis(methylthio)-6-methyl-3-pyridyl]-α-(4-fluoro-benzylthio)-4-chloro-phenylacetamide]",< 1000
14,"CSc1cc(C)nc(SC)c1NC(=O)C(SCc1ccc(Cl)cc1)c1ccc(Cl)cc1 (stereo not drawn) [Example 92, N-[2,4-bis(methylthio)-6-methyl-3-pyridyl]-α-(4-chloro-benzylthio)-4-chloro-phenylacetamide]",< 1000
15,"CSc1cc(C)nc(SC)c1NC(=O)C(Sc1ccccc1)c1ccc(Cl)cc1 (stereo not drawn) [Example 102, N-[2,4-bis(methylthio)-6-methyl-3-pyridyl]-α-phenylthio-4-chloro-phenylacetamide]",< 1000
16,"COc1ccc(SC(C(=O)Nc2c(SC)cc(C)nc2SC)c2ccc(Cl)cc2)cc1 (stereo not drawn) [Example 103, N-[2,4-bis(methylthio)-6-methyl-3-pyridyl]-α-(4-methoxy-phenylthio)-4-chloro-phenylacetamide]",< 1000
17,"CSc1cc(C)nc(SC)c1NC(=O)C(Sc1ccc(F)cc1)c1ccc(Cl)cc1 (stereo not drawn) [Example 104, N-[2,4-bis(methylthio)-6-methyl-3-pyridyl]-α-(4-fluoro-phenylthio)-4-chloro-phenylacetamide]",< 1000
18,"CCCCCCSC(C(=O)Nc1c(SC)cc(C)nc1SC)c1ccc(OC)cc1 (stereo not drawn) [Example 118, N-[2,4-bis(methylthio)-6-methyl-3-pyridyl]-α-hexylthio-4-methoxy-phenylacetamide]",< 1000
19,"COc1ccc(C(SCc2ccccc2)C(=O)Nc2c(SC)cc(C)nc2SC)cc1 (stereo not drawn) [Example 122, N-[2,4-bis(methylthio)-6-methyl-3-pyridyl]-α-benzylthio-4-methoxy-phenylacetamide]",< 1000
20,"COc1ccc(C(SCc2ccc(Cl)cc2)C(=O)Nc2c(SC)cc(C)nc2SC)cc1 (stereo not drawn) [Example 123, N-[2,4-bis(methylthio)-6-methyl-3-pyridyl]-α-(4-chloro-benzylthio)-4-methoxy-phenylacetamide]",< 1000
21,"COc1ccc(C(SCc2ccc(F)cc2)C(=O)Nc2c(SC)cc(C)nc2SC)cc1 (stereo not drawn) [Example 124, N-[2,4-bis(methylthio)-6-methyl-3-pyridyl]-α-(4-fluoro-benzylthio)-4-methoxy-phenylacetamide]",< 1000
22,"COc1ccc(CSC(C(=O)Nc2c(SC)cc(C)nc2SC)c2ccc(OC)cc2)cc1 (stereo not drawn) [Example 125, N-[2,4-bis(methylthio)-6-methyl-3-pyridyl]-α-(4-methoxy-benzylthio)-4-methoxy-phenylacetamide]",< 1000
23,"COc1ccc(C(Sc2ccccc2)C(=O)Nc2c(SC)cc(C)nc2SC)cc1 (stereo not drawn) [Example 135, N-[2,4-bis(methylthio)-6-methyl-3-pyridyl]-α-phenylthio-4-methoxy-phenylacetamide]",< 1000
24,"COc1ccc(C(Sc2ccc(F)cc2)C(=O)Nc2c(SC)cc(C)nc2SC)cc1 (stereo not drawn) [Example 136, N-[2,4-bis(methylthio)-6-methyl-3-pyridyl]-α-(4-fluoro-phenylthio)-4-methoxy-phenylacetamide]",< 1000
25,"COc1ccc(SC(C(=O)Nc2c(SC)cc(C)nc2SC)c2ccc(OC)cc2)cc1 (stereo not drawn) [Example 137, N-[2,4-bis(methylthio)-6-methyl-3-pyridyl]-α-(4-methoxy-phenylthio)-4-methoxy-phenylacetamide]",< 1000
26,"COc1ccc(C(OC)C(=O)Nc2c(SC)cc(C)nc2SC)cc1 (stereo not drawn) [Example 146, N-[2,4-bis(methylthio)-6-methyl-3-pyridyl]-α-O-methyl-4-methoxymandeloamide]",1000 to 10000
27,"COc1ccc(C(OC)C(=O)Nc2c(C(C)C)cccc2C(C)C)cc1 (stereo not drawn) [Example 147, N-(2,6-diisopropyl-phenyl)-α-O-methyl-4-methoxymandeloamide]",1000 to 10000
28,"CCCCCCSC(C(=O)Nc1c(SC)cc(C)nc1SC)c1ccc(F)cc1 (stereo not drawn) [Example 148, N-[2,4-bis(methylthio)-6-methyl-3-pyridyl]-α-hexylthio-4-fluoro-phenylacetamide]",< 1000
29,"CSc1cc(C)nc(SC)c1NC(=O)C(SCc1ccccc1)c1ccc(F)cc1 (stereo not drawn) [Example 152, N-[2,4-bis(methylthio)-6-methyl-3-pyridyl]-α-benzylthio-4-fluoro-phenylacetamide]",< 1000

# Reference: patent US5583147A, “Amides for the treatment of atherosclerosis” (The Dupont Merck Pharmaceutical Company, priority 1994, dated 1996)
